Laboratory results taken from ChEMBL document CHEMBL1201862, “PubChem BioAssay data set” (2004).
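In this assay, cells in 96-well plates receive the compound at five concentrations for 48 hours. Endpoints are linearly interpolated between the surrounding concentrations. GI50: concentration for 50% inhibition of growth.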 Active and inactive are the calls of the source. No stated cut-off is given here; in the data, active = GI50 up to about 1.1 µM and inactive = higher.

Key:
Assay in all cases: NCI-60 cell line screen, 48 h
[1] = system: 786-0
[2] = system: A498
[3] = system: A549
[4] = system: ACHN
[5] = system: CAKI-1
[6] = system: CCRF-CEM
[7] = system: COLO 205
[8] = system: DLD-1
[9] = system: DMS-114
[10] = system: EKVX
[11] = system: HCC 2998
[12] = system: HCT-116
[13] = system: HCT-15
[14] = system: HOP-18
[15] = system: HOP-62
[16] = system: HT-29
[17] = system: IGROV-1
[18] = system: K562
[19] = system: KM-20L2
[20] = system: KM12
[21] = system: LOX IMVI
[22] = system: LXFL 529
[23] = system: M14
[24] = system: M19-MEL
[25] = system: MOLT-4
[26] = system: Malme-3M
[27] = system: NCI-H226
[28] = system: NCI-H23
[29] = system: NCI-H460
[30] = system: NCI-H522
[31] = system: OVCAR-3
[32] = system: OVCAR-4
[33] = system: OVCAR-8
[34] = system: RPMI-8226
[35] = system: RXF 393
[36] = system: SF-268
[37] = system: SF-295
[38] = system: SF-539
[39] = system: SK-MEL-28
[40] = system: SK-MEL-2
[41] = system: SK-MEL-5
[42] = system: SK-OV-3
[43] = system: SN12C
[44] = system: SNB-19
[45] = system: SNB-75
[46] = system: SW-620
[47] = system: TK-10
[48] = system: U-251
[49] = system: UACC-257
[50] = system: UACC-62
[51] = system: UO-31
[52] = system: XF498
[53] = system: DMS-273
[54] = system: HL-60
[55] = system: HOP-92
[56] = system: OVCAR-5
[57] = system: SNB-78
[58] = system: SR

With `COc1ccc(OC)c(CC(C)N)c1` (stereo not given) the GI50 [1] was > 100 µM (inactive), the GI50 [2] was > 100 µM (inactive) and the GI50 [3] was > 100 µM (inactive). For the same compound, the GI50 [4] was > 100 µM (inactive), the GI50 [5] was > 100 µM (inactive) and the GI50 [6] was > 100 µM (inactive). The GI50 [7] was > 100 µM (inactive), the GI50 [8] was > 100 µM (inactive) and the GI50 [9] was > 100 µM (inactive). For the same compound, the GI50 [10] was > 100 µM (inactive), the GI50 [11] was > 100 µM (inactive) and the GI50 [12] was > 100 µM (inactive). For the same compound, the GI50 [13] was > 100 µM, the GI50 [14] was > 100 µM (inactive) and the GI50 [15] was > 100 µM (inactive). The GI50 [16] was > 100 µM (inactive), the GI50 [17] was > 100 µM (inactive) and the GI50 [18] was > 100 µM (inactive). For the same compound, the GI50 [19] was > 100 µM (inactive), the GI50 [20] was > 100 µM (inactive) and the GI50 [21] was > 100 µM (inactive). The GI50 [22] was > 100 µM (inactive), the GI50 [23] was > 100 µM (inactive) and the GI50 [24] was > 100 µM (inactive). The GI50 [25] was > 100 µM (inactive), the GI50 [26] was > 100 µM (inactive) and the GI50 [27] was > 100 µM (inactive). For the same compound, the GI50 [28] was > 100 µM (inactive), the GI50 [29] was > 100 µM (inactive) and the GI50 [30] was > 100 µM (inactive). The GI50 [31] was > 100 µM (inactive), the GI50 [32] was > 100 µM (inactive) and the GI50 [33] was > 100 µM (inactive). For the same compound, the GI50 [34] was > 100 µM (inactive), the GI50 [35] was > 100 µM (inactive) and the GI50 [36] was > 100 µM (inactive). The GI50 [37] was > 100 µM (inactive), the GI50 [38] was > 100 µM (inactive) and the GI50 [39] was > 100 µM (inactive). For the same compound, the GI50 [40] was > 100 µM (inactive), the GI50 [41] was > 100 µM (inactive) and the GI50 [42] was > 100 µM (inactive). The GI50 [43] was > 100 µM (inactive), the GI50 [44] was > 100 µM (inactive) and the GI50 [45] was > 100 µM (inactive). The GI50 [46] was > 100 µM (inactive), the GI50 [47] was > 100 µM (inactive) and the GI50 [48] was > 100 µM (inactive). For the same compound, the GI50 [49] was > 100 µM (inactive), the GI50 [50] was > 100 µM (inactive) and the GI50 [51] was > 100 µM (inactive). For the same compound, the GI50 [52] was > 100 µM (inactive).

In the case of `CN(C)C(=S)/N=c1\ss/c(=N\S(=O)(=O)c2ccccc2)n1C`, the GI50 [1] is reported as > 100 µM (inactive), the GI50 [2] is reported as > 100 µM (inactive) and the GI50 [3] is reported as > 100 µM (inactive). For the same compound, the GI50 [4] was > 100 µM (inactive), the GI50 [5] was > 100 µM (inactive) and the GI50 [6] was > 100 µM (inactive). The GI50 [8] was > 100 µM (inactive), the GI50 [9] was > 100 µM (inactive) and the GI50 [53] was > 100 µM (inactive). The GI50 [10] was > 100 µM (inactive), the GI50 [11] was > 100 µM (inactive) and the GI50 [12] was > 100 µM (inactive). For the same compound, the GI50 [13] was > 100 µM, the GI50 [54] was > 100 µM (inactive) and the GI50 [14] was > 100 µM (inactive). For the same compound, the GI50 [15] was > 100 µM (inactive), the GI50 [55] was > 100 µM (inactive) and the GI50 [16] was > 100 µM (inactive). For the same compound, the GI50 [17] was > 100 µM (inactive), the GI50 [18] was > 100 µM (inactive) and the GI50 [19] was > 100 µM (inactive). For the same compound, the GI50 [20] was > 100 µM (inactive), the GI50 [21] was > 100 µM (inactive) and the GI50 [22] was > 100 µM (inactive). The GI50 [23] was > 100 µM (inactive), the GI50 [24] was > 100 µM (inactive) and the GI50 [25] was > 100 µM (inactive). For the same compound, the GI50 [26] was > 100 µM (inactive), the GI50 [27] was > 100 µM (inactive) and the GI50 [28] was > 100 µM (inactive). The GI50 [29] was > 100 µM (inactive), the GI50 [30] was > 100 µM (inactive) and the GI50 [32] was > 100 µM (inactive). For the same compound, the GI50 [56] was > 100 µM (inactive), the GI50 [33] was > 100 µM (inactive) and the GI50 [34] was > 100 µM (inactive). The GI50 [35] was > 100 µM (inactive), the GI50 [36] was > 100 µM (inactive) and the GI50 [37] was > 100 µM (inactive). The GI50 [38] was > 100 µM (inactive), the GI50 [39] was > 100 µM (inactive) and the GI50 [40] was > 100 µM (inactive). For the same compound, the GI50 [41] was > 100 µM (inactive), the GI50 [42] was > 100 µM (inactive) and the GI50 [43] was > 100 µM (inactive). The GI50 [44] was > 100 µM (inactive), the GI50 [45] was 39.2 µM (inactive) and the GI50 [57] was > 100 µM (inactive). For the same compound, the GI50 [58] was > 100 µM (inactive), the GI50 [46] was > 100 µM (inactive) and the GI50 [47] was > 100 µM (inactive). For the same compound, the GI50 [48] was > 100 µM (inactive), the GI50 [49] was > 100 µM (inactive) and the GI50 [50] was > 100 µM (inactive). For the same compound, the GI50 [51] was > 100 µM (inactive) and the GI50 [52] was > 100 µM (inactive).

`Nc1c(-c2nc3ccccc3[nH]2)sc(=S)n1-c1ccc(Cl)cc1` was tested, and the GI50 [1] was 19.9 µM (inactive), the GI50 [2] was 31 µM (inactive) and the GI50 [3] was 23.5 µM (inactive). The GI50 [4] was 17.7 µM (inactive), the GI50 [5] was 33 µM (inactive) and the GI50 [6] was 41.1 µM (inactive). For the same compound, the GI50 [7] was 35.3 µM (inactive), the GI50 [8] was 48.2 µM (inactive) and the GI50 [9] was 18.6 µM (inactive). The GI50 [53] was 19.8 µM (inactive), the GI50 [10] was 35.8 µM (inactive) and the GI50 [11] was 21.8 µM (inactive). For the same compound, the GI50 [13] was 25.4 µM, the GI50 [54] was > 100 µM (inactive) and the GI50 [14] was 20.8 µM (inactive). The GI50 [15] was 25.6 µM (inactive), the GI50 [16] was 19.7 µM (inactive) and the GI50 [17] was 28.6 µM (inactive). For the same compound, the GI50 [18] was 32.8 µM (inactive), the GI50 [20] was 28.6 µM (inactive) and the GI50 [21] was 26.1 µM (inactive). For the same compound, the GI50 [23] was 30.3 µM (inactive), the GI50 [24] was 32.4 µM (inactive) and the GI50 [25] was 31.1 µM (inactive). For the same compound, the GI50 [26] was 36.2 µM (inactive), the GI50 [27] was 26.5 µM (inactive) and the GI50 [28] was 36.6 µM (inactive). The GI50 [30] was 22.4 µM (inactive), the GI50 [31] was 18.5 µM (inactive) and the GI50 [32] was 20 µM (inactive). For the same compound, the GI50 [56] was > 100 µM (inactive), the GI50 [33] was 23.8 µM (inactive) and the GI50 [34] was 28.1 µM (inactive). The GI50 [35] was 23.8 µM (inactive), the GI50 [36] was 25.3 µM (inactive) and the GI50 [37] was 22.9 µM (inactive). For the same compound, the GI50 [38] was 20.1 µM (inactive), the GI50 [39] was 33.7 µM (inactive) and the GI50 [40] was 25.6 µM (inactive). For the same compound, the GI50 [41] was 26 µM (inactive), the GI50 [42] was 34.3 µM (inactive) and the GI50 [43] was 21.4 µM (inactive). For the same compound, the GI50 [44] was 25.7 µM (inactive), the GI50 [45] was 27.7 µM (inactive) and the GI50 [57] was 30.4 µM (inactive). For the same compound, the GI50 [46] was 39.5 µM (inactive), the GI50 [47] was 30 µM (inactive) and the GI50 [48] was 23.7 µM (inactive). The GI50 [49] was 25.5 µM (inactive), the GI50 [50] was 16.1 µM (inactive) and the GI50 [51] was 29.6 µM (inactive). The GI50 [52] was 35.7 µM (inactive).
